Reference: PubChem BioAssay AID1259407 (Chemical Carcinogenesis Research Information System (CCRIS), 2018)
Calls of active or inactive are those of the source. No rule for the calls is given here.

System: CCRIS mutagenicity, Ames/micronucleus/aberration tests
Test: CCRIS mutagenicity studies
[1] = Test System: AMES SALMONELLA TYPHIMURIUM, Strain/Indicator: TA98, Metabolic Activation: NONE, Method: STANDARD PLATE
[2] = Test System: AMES SALMONELLA TYPHIMURIUM, Strain/Indicator: TA100, Metabolic Activation: NONE, Method: PREINCUBATION
[3] = Test System: AMES SALMONELLA TYPHIMURIUM, Strain/Indicator: TA100, Metabolic Activation: NONE, Method: STANDARD PLATE
[4] = Test System: AMES SALMONELLA TYPHIMURIUM, Strain/Indicator: TA1535, Metabolic Activation: NONE, Method: STANDARD PLATE
[5] = Test System: AMES SALMONELLA TYPHIMURIUM, Strain/Indicator: TA1537, Metabolic Activation: NONE, Method: STANDARD PLATE
[6] = Test System: AMES SALMONELLA TYPHIMURIUM, Strain/Indicator: TA1538, Metabolic Activation: NONE, Method: STANDARD PLATE

Measured: mutagenic call

O=S(=O)(c1ccc(O)cc1)c1ccc(O)cc1
inactive: Test System: AMES SALMONELLA TYPHIMURIUM, Strain/Indicator: TA98, Metabolic Activation: HAMSTER, LIVER, S-9, AROCLOR 1254 (10%), Method: STANDARD PLATE inactive; negative | Test System: AMES SALMONELLA TYPHIMURIUM, Strain/Indicator: TA98, Metabolic Activation: NONE, Method: PREINCUBATION inactive; negative | [1] inactive; negative | Test System: AMES SALMONELLA TYPHIMURIUM, Strain/Indicator: TA98, Metabolic Activation: RAT LIVER S-9, PHENOBARBITAL AND BETA-NAPHTHOFLAVONE, Method: PREINCUBATION inactive; negative | Test System: AMES SALMONELLA TYPHIMURIUM, Strain/Indicator: TA98, Metabolic Activation: RAT, LIVER, S-9, AROCLOR 1254 (10%), Method: STANDARD PLATE inactive; negative | Test System: AMES SALMONELLA TYPHIMURIUM, Strain/Indicator: TA100, Metabolic Activation: HAMSTER, LIVER, S-9, AROCLOR 1254 (10%), Method: STANDARD PLATE inactive; negative | [2] inactive; negative | [3] inactive; negative | Test System: AMES SALMONELLA TYPHIMURIUM, Strain/Indicator: TA100, Metabolic Activation: RAT LIVER S-9, PHENOBARBITAL AND BETA-NAPHTHOFLAVONE, Method: PREINCUBATION inactive; negative | Test System: AMES SALMONELLA TYPHIMURIUM, Strain/Indicator: TA100, Metabolic Activation: RAT, LIVER, S-9, AROCLOR 1254 (10%), Method: STANDARD PLATE inactive; negative | Test System: AMES SALMONELLA TYPHIMURIUM, Strain/Indicator: TA1535, Metabolic Activation: HAMSTER, LIVER, S-9, AROCLOR 1254 (10%), Method: STANDARD PLATE inactive; negative | Test System: AMES SALMONELLA TYPHIMURIUM, Strain/Indicator: TA1535, Metabolic Activation: NONE, Method: PREINCUBATION inactive; negative | [4] inactive; negative | Test System: AMES SALMONELLA TYPHIMURIUM, Strain/Indicator: TA1535, Metabolic Activation: RAT LIVER S-9, PHENOBARBITAL AND BETA-NAPHTHOFLAVONE, Method: PREINCUBATION inactive; negative | Test System: AMES SALMONELLA TYPHIMURIUM, Strain/Indicator: TA1535, Metabolic Activation: RAT, LIVER, S-9, AROCLOR 1254 (10%), Method: STANDARD PLATE inactive; negative | Test System: AMES SALMONELLA TYPHIMURIUM, Strain/Indicator: TA1537, Metabolic Activation: HAMSTER, LIVER, S-9, AROCLOR 1254 (10%), Method: STANDARD PLATE inactive; negative | Test System: AMES SALMONELLA TYPHIMURIUM, Strain/Indicator: TA1537, Metabolic Activation: NONE, Method: PREINCUBATION inactive; negative | [5] inactive; negative | Test System: AMES SALMONELLA TYPHIMURIUM, Strain/Indicator: TA1537, Metabolic Activation: RAT LIVER S-9, PHENOBARBITAL AND BETA-NAPHTHOFLAVONE, Method: PREINCUBATION inactive; negative | Test System: AMES SALMONELLA TYPHIMURIUM, Strain/Indicator: TA1537, Metabolic Activation: RAT, LIVER, S-9, AROCLOR 1254 (10%), Method: STANDARD PLATE inactive; negative | Test System: AMES SALMONELLA TYPHIMURIUM, Strain/Indicator: TA1538, Metabolic Activation: HAMSTER, LIVER, S-9, AROCLOR 1254 (10%), Method: STANDARD PLATE inactive; negative | [6] inactive; negative | Test System: AMES SALMONELLA TYPHIMURIUM, Strain/Indicator: TA1538, Metabolic Activation: RAT, LIVER, S-9, AROCLOR 1254 (10%), Method: STANDARD PLATE inactive; negative | Test System: E. COLI, Strain/Indicator: WP2UVRA, Metabolic Activation: NONE, Method: PREINCUBATION inactive; negative | Test System: E. COLI, Strain/Indicator: WP2UVRA, Metabolic Activation: RAT LIVER S-9, PHENOBARBITAL AND BETA-NAPHTHOFLAVONE, Method: PREINCUBATION inactive; negative | Test System: MOUSE LYMPHOMA, Strain/Indicator: L5178Y (TK+/TK-), Metabolic Activation: NONE, Method: SUSPENSION/PLATE inactive; positive. reevaluation of results: negative | Test System: MOUSE LYMPHOMA, Strain/Indicator: L5178Y (TK+/TK-), Metabolic Activation: RAT, LIVER, S-9, AROCLOR 1254, Method: SUSPENSION/PLATE inactive; negative

C=CC(=O)OCCCCCC
inactive: [1] inactive; negative | Test System: AMES SALMONELLA TYPHIMURIUM, Strain/Indicator: TA98, Metabolic Activation: RAT, LIVER, S-9, AROCLOR 1254, Method: STANDARD PLATE inactive; negative | Test System: AMES SALMONELLA TYPHIMURIUM, Strain/Indicator: TA98, Metabolic Activation: RAT, LIVER, S-9, SODIUM PHENOBARBITAL, Method: STANDARD PLATE inactive; negative | [2] inactive; negative | [3] inactive; negative | Test System: AMES SALMONELLA TYPHIMURIUM, Strain/Indicator: TA100, Metabolic Activation: RAT, LIVER, S-9, AROCLOR 1254, Method: PREINCUBATION inactive; negative | Test System: AMES SALMONELLA TYPHIMURIUM, Strain/Indicator: TA100, Metabolic Activation: RAT, LIVER, S-9, AROCLOR 1254, Method: STANDARD PLATE inactive; negative | Test System: AMES SALMONELLA TYPHIMURIUM, Strain/Indicator: TA100, Metabolic Activation: RAT, LIVER, S-9, SODIUM PHENOBARBITAL, Method: STANDARD PLATE inactive; negative | [4] inactive; negative | Test System: AMES SALMONELLA TYPHIMURIUM, Strain/Indicator: TA1535, Metabolic Activation: RAT, LIVER, S-9, AROCLOR 1254, Method: STANDARD PLATE inactive; negative | Test System: AMES SALMONELLA TYPHIMURIUM, Strain/Indicator: TA1535, Metabolic Activation: RAT, LIVER, S-9, SODIUM PHENOBARBITAL, Method: STANDARD PLATE inactive; negative | [5] inactive; negative | Test System: AMES SALMONELLA TYPHIMURIUM, Strain/Indicator: TA1537, Metabolic Activation: RAT, LIVER, S-9, AROCLOR 1254, Method: STANDARD PLATE inactive; negative | Test System: AMES SALMONELLA TYPHIMURIUM, Strain/Indicator: TA1537, Metabolic Activation: RAT, LIVER, S-9, SODIUM PHENOBARBITAL, Method: STANDARD PLATE inactive; negative | [6] inactive; negative | Test System: AMES SALMONELLA TYPHIMURIUM, Strain/Indicator: TA1538, Metabolic Activation: RAT, LIVER, S-9, AROCLOR 1254, Method: STANDARD PLATE inactive; negative | Test System: AMES SALMONELLA TYPHIMURIUM, Strain/Indicator: TA1538, Metabolic Activation: RAT, LIVER, S-9, SODIUM PHENOBARBITAL, Method: STANDARD PLATE inactive; negative

C=C1C[C@@]23CCC4[C@](C)(C(=O)O)CCC[C@@]4(C)[C@@H]2CC[C@]1(OC(C)=O)C3 (stereo not given in full)
inactive: Test System: AMES SALMONELLA TYPHIMURIUM, Strain/Indicator: TM677, Metabolic Activation: RAT, LIVER, S-9, AROCLOR 1254, Method: PREINCUBATION inactive; negative
